Measured values taken from US6288125A, “Treatment of hiatial hernia” (Knoll Pharmaceuticals Company, priority 2000, dated 2001).

Test system: reuptake of all three monoamines
Assay: monoamine reuptake inhibition profile (in words, with reference to Table 1)
Type: biochemical, rat
Conditions: sibutramine through its pharmacologically active metabolites 1 and 2

CC(C)CC(N(C)C)C1(c2ccc(Cl)cc2)CCC1 (stereo not shown) [sibutramine, N,N-dimethyl-1-[1-(4-chlorophenyl)cyclobutyl]-3-methylbutylamine]
monoamine reuptake inhibition / selectivity in words: inhibits the reuptake of all three monoamines
